Paper PMC12284850, “In Silico Design of Antimicrobial Peptides against Carbapenem-Resistant Infections with Enhanced Activity by Nanoformulation” (ACS Applied Bio Materials, 2025)
In brackets after ≈: the same amount, converted by molar mass. Where a SMILES comes first, the peptide text is derived from it.

How the values were obtained:
E. coil ATCC25922 = assay type: cell-based, E. coli
Experimental: (§1) The broth microdilution procedure involves preparing CAMHB broth, a bacterial suspension adjusted to McFarland 0.5 (1.5 × 10^8 CFU/mL) and diluted 200×, and a drug solution at 2× the final target concentration. To achieve a 400× final bacterial dilution, add 100 μL of the drug at different doses to a 96-well plate, then 100 μL of the diluted bacterial culture. Measure the initial absorbance (0 h), incubate at 37 °C for 16–18 h, and measure the final absorbance. With no change in absorbance, the MIC signifies the absence of bacterial growth.

S. aureus ATCC25923 = assay type: cell-based
Experimental: as §1

E. faecalis ATCC 29212 = assay type: cell-based
Experimental: as §1

S. aureus ATCC29213 = assay type: cell-based
Experimental: as §1

S. aureus ATCC700698 = assay type: cell-based
Experimental: as §1

P. aeruginosa ATCC27853 = assay type: cell-based
Experimental: as §1

[1] = tested on: K. pneumoniae ATCCC700603; assay type: cell-based
Experimental: as §1

[2] = tested on: K. pneumoniae ATCC BAA-1705; assay type: cell-based
Experimental: as §1

S. aureus ATCC33592 = assay type: cell-based
Experimental: as §1

[3] = tested on: A. baumannii ATCC BAA-747; assay type: cell-based
Experimental: as §1

A. baumannii ATCC19606 = assay type: cell-based
Experimental: as §1

THP-1 = assay type: cell-based; conditions: 72 h
HK-2 cells = assay: Cytotoxicity assay (MTT); assay type: cell-based
Experimental: (§2) We tested the cytotoxicity of several antibiotic compounds, including peptides and nanoparticles, on the human embryonic kidney cell lines HEK-293, HK-2, and […]. The cells were stored in DMEM medium and incubated at 37 °C with 5% CO2 in a humidifying environment. Using the MTT (methylthiazolyldiphenyl-tetrazolium bromide) test, cell viability was evaluated. Following a 5 × 10^3 cell/mL seeding in 96-well plates, the cells were exposed to 100 μL of samples at varying concentrations (12.5–200 μM) during 72 h at 37 °C. Later, each well is loaded with MTT solution (5 mg/mL in PBS) at a volume of 10 μL. The plates were left in the dark for 4 h. After forming formazan crystals due to the action of mitochondrial reductases in living cells, the crystals were dissolved using a solubilizing solution (pH 4.7, 40% dimethylformamide, 2% glacial acetic acid, and 16% sodium dodecyl sulfate) were shaken at 150 rpm and incubated for an hour at 37 °C. Using graphical plot analysis, the IC50 value–the concentration that results in 50% cell death–was obtained by measuring the absorbance of the dissolved formazan at 570 nm. The average of three independent tests, each carried out in triplicate, was used to display the results.

Gram-positive bacteria = assay: MIC against Gram-positive bacteria; assay type: cell-based; conditions: broth microdilution
Experimental: as §1

HEK293 = assay type: cell-based, human; conditions: 72 h
Experimental: as §2

CRAB isolate AB-08 = assay type: cell-based, A. baumannii
Text: (§3) The blood samples of patients from Kaohsiung Medical University were used to collect and cryopreserve all of the CRAB clinical isolates. Analytical graded chemicals and reagents were utilized throughout the investigation. The T2–02 peptide (MW 2646.27 Da) was custom-synthesized by Kelowna International Scientific Inc., 1,2-[…]-sn-glycero-3-phosphoethanolamine-N-[methoxy(polyethylene glycol)-2000] (ammonium salt) (DSPE-PEG2000, MW 2693.285 Da) was purchased from Laysan Bio Inc., 1,2-Dioleoyl-sn-glycero-3-phosphocholine (DOPC, MW 786.1 Da) was acquired from BroadPharm, and Poly-L-lysine hydrobromide (30–70 kDa) was sourced from Sigma-Aldrich.
as §1

CRAB isolate AB-04 = assay type: cell-based, A. baumannii
Text: as §3, §1

CRAB isolate AB-14 = assay type: cell-based, A. baumannii
Text: as §3, §1

CRAB isolate AB-16 = assay type: cell-based, A. baumannii
Text: as §3, §1

CRAB isolate AB-21 = assay type: cell-based, A. baumannii
Text: as §3, §1

CRAB isolate AB-22 = assay type: cell-based, A. baumannii
Text: as §3, §1

CRAB isolate AB-20 = assay type: cell-based, A. baumannii
Text: as §3, §1

CRAB isolate AB-18 = assay type: cell-based, A. baumannii
Text: as §3, §1

CRAB isolate AB-24 = assay type: cell-based, A. baumannii
Text: as §3, §1

CRAB isolate AB-12 = assay type: cell-based, A. baumannii
Text: as §3, §1

CRAB isolate AB-02 = assay type: cell-based, A. baumannii
Text: as §3, §1

CRAB isolate AB-17 = assay type: cell-based, A. baumannii
Text: as §3, §1

CRAB isolate AB-09 = assay type: cell-based, A. baumannii
Text: as §3, §1

CRAB isolate AB-03 = assay type: cell-based, A. baumannii
Text: as §3, §1

CRAB isolate AB-19 = assay type: cell-based, A. baumannii
Text: as §3, §1

CRAB isolate AB-10 = assay type: cell-based, A. baumannii
Text: as §3, §1

CRAB isolate AB-15 = assay type: cell-based, A. baumannii
Text: as §3, §1

CRAB isolate AB-05 = assay type: cell-based, A. baumannii
Text: as §3, §1

CRAB isolate AB-07 = assay type: cell-based, A. baumannii
Text: as §3, §1

CRAB isolate AB-23 = assay type: cell-based, A. baumannii
Text: as §3, §1

CRAB isolate AB-11 = assay type: cell-based, A. baumannii
Text: as §3, §1

CRAB isolate AB-13 = assay type: cell-based, A. baumannii
Text: as §3, §1

CRAB isolate AB-06 = assay type: cell-based, A. baumannii
Text: as §3, §1

CRAB isolate AB-01 = assay type: cell-based, A. baumannii
Text: as §3, §1

SMILES: CC[C@H](C)[C@H](NC(=O)[C@H](CCCCN)NC(=O)CNC(=O)[C@H](CCCNC(=N)N)NC(=O)[C@H](CCCNC(=N)N)NC(=O)[C@H](CCCCN)NC(=O)[C@H](CC(C)C)NC(=O)[C@H](CC(C)C)NC(=O)[C@H](CCCNC(=N)N)NC(=O)[C@H](CCCCN)NC(=O)[C@H](Cc1c[nH]c2ccccc12)NC(=O)[C@H](CC(C)C)NC(=O)[C@H](C)N)C(=O)N[C@H](C(=O)N[C@@H](CC(C)C)C(=O)N[C@@H](CC(N)=O)C(=O)N[C@@H](CCC(=O)O)C(=O)N[C@@H](CCCNC(=N)N)C(=O)N[C@@H](CC(C)C)C(=O)N[C@@H](CCCNC(=N)N)C(=O)N[C@@H](CC(C)C)C(=O)O)[C@@H](C)CC [T2–02] (H-ALWKRLLKRRGKIILNERLRL-OH)
- MIC (E. coil ATCC25922): 64 µg/mL (≈ 24.2 µM)
- MIC (S. aureus ATCC25923): 256 µg/mL (≈ 96.7 µM)
- MIC (E. faecalis ATCC 29212): 64 µg/mL (≈ 24.2 µM)
- MIC (S. aureus ATCC29213): 64 µg/mL (≈ 24.2 µM)
- MIC (S. aureus ATCC700698): 256 µg/mL (≈ 96.7 µM)
- MIC (P. aeruginosa ATCC27853): 8 µg/mL (≈ 3.02 µM)
- MIC [1]: 128 µg/mL (≈ 48.4 µM)
- MIC [2]: 512 µg/mL (≈ 193 µM)
- MIC (S. aureus ATCC33592): 256 µg/mL (≈ 96.7 µM)
- MIC [3]: 8 µg/mL (≈ 3.02 µM)
- MIC (A. baumannii ATCC19606): 8 µg/mL (≈ 3.02 µM)
- IC50 THP-1 (THP-1): 866 µg/mL (≈ 327 µM)
- Cytotoxicity HK-2 related to PMB (HK-2 cells): 30.9
- IC50 HK-2 (HK-2 cells; concentration causing 50% cell death, MTT, 72 h, 37 °C, average of three independent tests in triplicate): 557 µg/mL (≈ 210 µM)
- MIC against Gram-positive bacteria (range) (Gram-positive bacteria): 64 to 256 µg/mL
- IC50 HEK293 (HEK293): 1101 µg/mL (≈ 416 µM)
- MIC (CRAB isolate AB-08): 8 µg/mL (≈ 3.02 µM)
- MIC (CRAB isolate AB-04): 8 µg/mL (≈ 3.02 µM)
- MIC (CRAB isolate AB-14): 8 µg/mL (≈ 3.02 µM)
- MIC (CRAB isolate AB-16): 16 µg/mL (≈ 6.05 µM)
- MIC (CRAB isolate AB-21): 8 µg/mL (≈ 3.02 µM)
- MIC (CRAB isolate AB-22): 8 µg/mL (≈ 3.02 µM)
- MIC (CRAB isolate AB-20): 8 µg/mL (≈ 3.02 µM)
- MIC (CRAB isolate AB-18): 16 µg/mL (≈ 6.05 µM)
- MIC (CRAB isolate AB-24): 8 µg/mL (≈ 3.02 µM)
- MIC (CRAB isolate AB-12): 16 µg/mL (≈ 6.05 µM)
- MIC (CRAB isolate AB-02): 8 µg/mL (≈ 3.02 µM)
- MIC (CRAB isolate AB-17): 8 µg/mL (≈ 3.02 µM)
- MIC (CRAB isolate AB-09): 8 µg/mL (≈ 3.02 µM)
- MIC (CRAB isolate AB-03): 4 µg/mL (≈ 1.51 µM)
- MIC (CRAB isolate AB-19): 8 µg/mL (≈ 3.02 µM)
- MIC (CRAB isolate AB-10): 8 µg/mL (≈ 3.02 µM)
- MIC (CRAB isolate AB-15): 8 µg/mL (≈ 3.02 µM)
- MIC (CRAB isolate AB-05): 8 µg/mL (≈ 3.02 µM)
- MIC (CRAB isolate AB-07): 8 µg/mL (≈ 3.02 µM)
- MIC (CRAB isolate AB-23): 8 µg/mL (≈ 3.02 µM)
- MIC (CRAB isolate AB-11): 8 µg/mL (≈ 3.02 µM)
- MIC (CRAB isolate AB-13): 4 µg/mL (≈ 1.51 µM)
- MIC (CRAB isolate AB-06): 8 µg/mL (≈ 3.02 µM)
- MIC (CRAB isolate AB-01): 8 µg/mL (≈ 3.02 µM)
